Results on 37 compounds are retold here after patent publication US20140155376A1, “PYRROLOPYRAZINE KINASE INHIBITORS” (Hoffmann-La Roche Inc., priority 2010, published 2014).

The term IC50 denotes the midpoint of a concentration-inhibition curve.

The target in this experiment is T1, JAK3 (recombinant human kinase domain; h-jak3(810-1124)) (Homo sapiens, UniProt P52333).
T1 construct: h-jak3(810- 1124)-sf9-c; made in house; host or cells: Sf9 insect cells
Nature of the experiment: Determination of IC50 of Janus Kinase (JAK) inhibition: JAK3, radioactive end-point assay with 33P-ATP. As to conditions: JAK3 kinase domain; ATP 1.5 uM, peptide 50 uM, 20 minutes, room temperature, 10% DMSO; read-out: Ic50 h-jak3(810-1124)-sf9-c:no additive. Type of experiment: biochemical.

T1 sequence (P52333 810-1124): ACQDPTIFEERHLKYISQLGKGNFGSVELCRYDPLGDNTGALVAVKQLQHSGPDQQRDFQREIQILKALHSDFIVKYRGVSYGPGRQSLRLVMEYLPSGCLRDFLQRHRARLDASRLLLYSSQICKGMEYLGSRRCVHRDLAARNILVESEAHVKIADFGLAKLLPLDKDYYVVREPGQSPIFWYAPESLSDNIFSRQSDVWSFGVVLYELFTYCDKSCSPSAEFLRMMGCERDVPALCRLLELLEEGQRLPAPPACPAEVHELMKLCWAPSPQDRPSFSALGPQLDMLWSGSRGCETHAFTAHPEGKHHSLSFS
Text: Determination of IC50 of Janus Kinase (JAK) Inhibition:
Enzymes and peptide substrate used are described below: • JAK1: Recombinant human kinase domain from Invitrogen (Cat # PV4774) • JAK3: Recombinant human kinase domain from Millipore (Cat #14-629) or prepared. • JAK2: Recombinant human kinase domain from Millipore (Cat #14-640) • Substrate: N-terminally biotinylated 14-mer peptide derived from activation loop of JAK1 with sequence of the peptide substrate: Biotin-[sequence]
Assay Conditions Used are Described Below: • Assay Buffer: JAK Kinase Buffer: 50 mM Hepes [pH 7.2], 10 mM MgCl2, 1 mM DTT, • 1 mg/ml BSA. The assay is carried out in this buffer. • Assay Format The kinase activity of all three JAK kinases is measured using a radioactive, end-point assay and with trace amounts of ^33P-ATP. The assays are carried out in 96-well polypropylene plates.
All concentrations are final in the reaction mixture and all incubations are carried at room temperature. […] Final concentration of DMSO in the reaction is 10%. • 2) Compounds are preincubated with enzyme (0.5 nM JAK3 (commercially available), 0.2 nM JAK3 (prepared), 1 nM JAK2, 5 nM JAK1) for 10 minutes. • 3) Reactions are initiated by the addition of a cocktail of the two substrates (ATP and peptide premixed in the JAK Kinase Buffer). In the JAK2/JAK3 assays, ATP and the peptide are used at concentrations of 1.5 uM and 50 uM, respectively. JAK1 assay is carried out at an ATP concentration of 10 uM and a peptide concentration of 50 uM. • 4) The duration of the assay for JAK2 and JAK3 is 20 minutes. JAK1 assay is carried out for 40 minutes. With all three enzymes, reactions are terminated by the addition of 0.5M EDTA to a final concentration of 100 mM. • 5) 25 ul of terminated reactions are transferred to 150 ul of a 7.5% (v/v) slurry of streptavidin-coated sepharose beads in MgCl2- and CaCl2-free 1× Phosphate Buffered Saline containing 50 mM of EDTA in 96-well, 1.2 um MultiScreen-BV filter plates. • 6) After a 30-minute incubation, the beads are washed under vacuum with the following buffers: • a. 3 to 4 washes with 200 ul of 2M NaCl. • b. 3 to 4 washes with 200 ul of 2M NaCl plus 1% (v/v) phosphoric acid. • c. 1 wash with water. • 7) Washed plates are dried in a 60° C. oven for between 1 to 2 hours. • 8) 70 ul of Microscint 20 scintillation fluid is added to each well of filter plates and after at least 30 minutes of incubation, radioactive counts are measured in a Perkin-Elmer microplate scintillation counter.

In the case of `CC(C)(CO)CNC(=O)c1c[nH]c2ncc(Br)nc12` [Example I-1, 2-Bromo-5H-pyrrolo[2,3-b]pyrazine-7-carboxylic acid (3-hydroxy-2,2-dimethyl-propyl)-amide], the IC50 was 225 nM.
With `C[C@H](NC(=O)c1c[nH]c2ncc(C3=CCCC3)nc12)C(C)(C)O` [Example I-2, 2-Cyclopent-1-enyl-5H-pyrrolo[2,3-b]pyrazine-7-carboxylic acid ((S)-2-hydroxy-1,2-dimethyl-propyl)-amide] the figure was 5.23 nM.
In the case of `C=C(C)c1cnc2[nH]cc(C(=O)N[C@@H](C)C(C)(C)O)c2n1` [Example I-3, 2-Isopropenyl-5H-pyrrolo[2,3-b]pyrazine-7-carboxylic acid ((S)-2-hydroxy-1,2-dimethyl-propyl)-amide], the half-maximal inhibitory concentration (IC50) is 12.2 nM.
Consider `CN(C)c1cnc2[nH]cc(C(=O)NCC(C)(C)CO)c2n1` [Example I-4, 2-Dimethylamino-5H-pyrrolo[2,3-b]pyrazine-7-carboxylic acid (3-hydroxy-2,2-dimethyl-propyl)-amide], for which the 50% inhibitory concentration (IC50) was 34.9 nM.
In the case of `CC(C)c1cnc2[nH]cc(C(=O)N[C@@H](C)C(C)(C)O)c2n1` [Example I-5, 2-Isopropyl-5H-pyrrolo[2,3-b]pyrazine-7-carboxylic acid ((S)-2-hydroxy-1,2-dimethyl-propyl)-amide], the half-maximal inhibitory concentration (IC50) was 302 nM.
Consider `C[C@H](NC(=O)c1c[nH]c2ncc(C3CCCC3)nc12)C(C)(C)O` [Example I-6, 2-Cyclopentyl-5H-pyrrolo[2,3-b]pyrazine-7-carboxylic acid ((S)-2-hydroxy-1,2-dimethyl-propyl)-amide], for which the IC50 was found to be 126 nM.
On to `C[C@H](NC(=O)c1c[nH]c2ncc(C3=CCCCC3)nc12)C(C)(C)O` [Example I-7, 2-Cyclohex-1-enyl-5H-pyrrolo[2,3-b]pyrazine-7-carboxylic acid ((S)-2-hydroxy-1,2-dimethyl-propyl)-amide], for which the IC50 is 4.51 nM.
To `COCC(C)NC(=O)c1c[nH]c2ncc(C3CC3)nc12` (stereo not shown) [Example I-9, 2-Cyclopropyl-5H-pyrrolo[2,3-b]pyrazine-7-carboxylic acid (2-methoxy-1-methyl-ethyl)-amide] belongs 19.6 nM.
With `CC(C)(CO)CNC(=O)c1c[nH]c2ncc(N3CCCC3)nc12` [Example I-10, 2-Pyrrolidin-1-yl-5H-pyrrolo[2,3-b]pyrazine-7-carboxylic acid (3-hydroxy-2,2-dimethyl-propyl)-amide] the figure was 34.3 nM; with `C[C@H](NC(=O)c1c[nH]c2ncc(C3CCCCC3)nc12)C(C)(C)O` [Example I-11, 2-Cyclohexyl-5H-pyrrolo[2,3-b]pyrazine-7-carboxylic acid ((S)-2-hydroxy-1,2-dimethyl-propyl)-amide], 152 nM.
Turning to `CC(O)CC(C)(C)NC(=O)c1c[nH]c2ncc(C3CC3)nc12` (stereo not shown) [Example I-12, 2-Cyclopropyl-5H-pyrrolo[2,3-b]pyrazine-7-carboxylic acid (3-hydroxy-1,1-dimethyl-butyl)-amide], the IC50 is 192 nM.
As for `N#CCCNC(=O)c1c[nH]c2ncc(C3CC3)nc12` [Example I-13, 2-Cyclopropyl-5H-pyrrolo[2,3-b]pyrazine-7-carboxylic acid (2-cyano-ethyl)-amide], the half-maximal inhibitory concentration (IC50) worked out at 436 nM.
As to `CC(C)(CO)CNC(=O)c1c[nH]c2ncc(N3CCC(C)(C)C3)nc12` [Example I-14, 2-(3,3-Dimethyl-pyrrolidin-1-yl)-5H-pyrrolo[2,3-b]pyrazine-7-carboxylic acid (3-hydroxy-2,2-dimethyl-propyl)-amide], the IC50 was found to be 409 nM.
With `CC(C)(CO)CNC(=O)c1c[nH]c2ncc(Nc3ccccc3)nc12` [Example I-15, 2-Phenylamino-5H-pyrrolo[2,3-b]pyrazine-7-carboxylic acid (3-hydroxy-2,2-dimethyl-propyl)-amide] the figure was 7.49 nM; with `CNC(=O)CNc1cnc2[nH]cc(C(=O)NCC(C)(C)CO)c2n1` [Example I-16], 459 nM; with `CC(C)(O)C(CCO)NC(=O)c1c[nH]c2ncc(C3CC3)nc12` (stereo not shown) [Example I-17, 2-Cyclopropyl-5H-pyrrolo[2,3-b]pyrazine-7-carboxylic acid [2-hydroxy-1-(2-hydroxy-ethyl)-2-methyl-propyl]-amide], 84.5 nM.
Turning to `C[C@H](NC(=O)c1c[nH]c2ncc(-c3cccs3)nc12)C(C)(C)O` [Example I-18, 2-Thiophen-2-yl-5H-pyrrolo[2,3-b]pyrazine-7-carboxylic acid ((S)-2-hydroxy-1,2-dimethyl-propyl)-amide], the IC50 came to 3.05 nM.
With `Cc1ccc(-c2cnc3[nH]cc(C(=O)N[C@@H](C)C(C)(C)O)c3n2)cn1` [Example I-21, 2-(6-Methyl-pyridin-3-yl)-5H-pyrrolo[2,3-b]pyrazine-7-carboxylic acid ((S)-2-hydroxy-1,2-dimethyl-propyl)-amide], the IC50 stood at 45 nM.
`CC[C@H](C)NC(=O)c1c[nH]c2ncc(C3CC3)nc12` [Example I-22, 2-Cyclopropyl-5H-pyrrolo[2,3-b]pyrazine-7-carboxylic acid ((S)-sec-butyl)-amide]: the IC50 is 5.9 nM.
`CC(C)[C@H](NC(=O)c1c[nH]c2ncc(C3CC3)nc12)C(C)(C)O` [Example I-24, 2-Cyclopropyl-5H-pyrrolo[2,3-b]pyrazine-7-carboxylic acid ((S)-2-hydroxy-1-isopropyl-2-methyl-propyl)-amide]: the 50% inhibitory concentration (IC50) was determined as 180 nM.
For the compound `CC(C)[C@H](C)NC(=O)c1c[nH]c2ncc(C3CC3)nc12` [Example I-25, 2-Cyclopropyl-5H-pyrrolo[2,3-b]pyrazine-7-carboxylic acid ((S)-1,2-dimethyl-propyl)-amide], the IC50 was 6.73 nM.
With `CCC(CC)NC(=O)c1c[nH]c2ncc(C3CC3)nc12` [Example I-26, 2-Cyclopropyl-5H-pyrrolo[2,3-b]pyrazine-7-carboxylic acid (1-ethyl-propyl)-amide], the IC50 was 4.08 nM.
With `CC(CN(C)C)NC(=O)c1c[nH]c2ncc(C3CC3)nc12` (stereo not shown) [Example I-27, 2-Cyclopropyl-5H-pyrrolo[2,3-b]pyrazine-7-carboxylic acid (2-dimethylamino-1-methyl-ethyl)-amide] the figure was 934 nM; with `N#CCNC(=O)c1c[nH]c2ncc(C3CC3)nc12` [Example I-28, 2-Cyclopropyl-5H-pyrrolo[2,3-b]pyrazine-7-carboxylic acid cyanomethyl-amide], 681 nM.
As for `CC[C@H](NC(=O)c1c[nH]c2ncc(C3CC3)nc12)C(C)(C)O` [Example I-29, 2-Cyclopropyl-5H-pyrrolo[2,3-b]pyrazine-7-carboxylic acid ((S)-1-ethyl-2-hydroxy-2-methyl-propyl)-amide], the IC50 was found to be 54.3 nM.
With `CC[C@](C)(O)[C@H](C)NC(=O)c1c[nH]c2ncc(C3CC3)nc12` [Example I-31, 2-Cyclopropyl-5H-pyrrolo[2,3-b]pyrazine-7-carboxylic acid ((1S,2S)-2-hydroxy-1,2-dimethyl-butyl)-amide], the IC50 turned out to be 39.5 nM.
Consider `C[C@H](NC(=O)c1c[nH]c2ncc(C3CC3)nc12)C1CCCCC1` [Example I-32, 2-Cyclopropyl-5H-pyrrolo[2,3-b]pyrazine-7-carboxylic acid ((S)-1-cyclohexyl-ethyl)-amide], for which the IC50 is 20.1 nM.
As to `N#CCCCNC(=O)c1c[nH]c2ncc(C3CC3)nc12` [Example I-33, 2-Cyclopropyl-5H-pyrrolo[2,3-b]pyrazine-7-carboxylic acid (3-cyano-propyl)-amide], the concentration for half-maximal inhibition (IC50) came out at 493 nM.
For `CC[C@@](C)(O)[C@H](C)NC(=O)c1c[nH]c2ncc(C3CC3)nc12` [Example I-34, 2-Cyclopropyl-5H-pyrrolo[2,3-b]pyrazine-7-carboxylic acid ((1S,2R)-2-hydroxy-1,2-dimethyl-butyl)-amide], the IC50 is 36.4 nM.
Take `CC(C)(CO)CNC(=O)c1c[nH]c2ncc(C(F)(F)F)nc12` [Example I-35, 2-Trifluoromethyl-5H-pyrrolo[2,3-b]pyrazine-7-carboxylic acid (3-hydroxy-2,2-dimethyl-propyl)-amide]: the concentration for half-maximal inhibition (IC50) amounted to 1040 nM.
Take `C=Cc1cnc2[nH]cc(C(=O)NCC(C)(C)CO)c2n1` [Example I-36, 2-Vinyl-5H-pyrrolo[2,3-b]pyrazine-7-carboxylic acid (3-hydroxy-2,2-dimethyl-propyl)-amide]: the 50% inhibitory concentration (IC50) worked out at 33.6 nM.
Regarding `C[C@H](NC(=O)c1c[nH]c2ncc(C3CC3)nc12)c1cc[nH]n1` [Example I-37, 2-Cyclopropyl-5H-pyrrolo[2,3-b]pyrazine-7-carboxylic acid [(S)-1-(1H-pyrazol-3-yl)-ethyl]-amide], the IC50 was 22 nM.
With `C[C@H](NC(=O)c1c[nH]c2ncc(C3CC3)nc12)[C@@](C)(O)CC1CC1` [Example I-38, 2-Cyclopropyl-5H-pyrrolo[2,3-b]pyrazine-7-carboxylic acid ((1S,2S)-3-cyclopropyl-2-hydroxy-1,2-dimethyl-propyl)-amide] the figure was 115 nM.
On to `CCc1cnc2[nH]cc(C(=O)NCC(C)(C)CO)c2n1` [Example I-39, 2-Ethyl-5H-pyrrolo[2,3-b]pyrazine-7-carboxylic acid (3-hydroxy-2,2-dimethyl-propyl)-amide], for which the 50% inhibitory concentration (IC50) came to 302 nM.
With `CC[C@@H](CO)NC(=O)c1c[nH]c2ncc(C3CC3)nc12` [Example I-40, 2-Cyclopropyl-5H-pyrrolo[2,3-b]pyrazine-7-carboxylic acid ((S)-1-hydroxymethyl-propyl)-amide] the figure was 128 nM.
For `C[C@H](CO)NC(=O)c1c[nH]c2ncc(C3CC3)nc12` [Example I-41, 2-Cyclopropyl-5H-pyrrolo[2,3-b]pyrazine-7-carboxylic acid ((R)-2-hydroxy-1-methyl-ethyl)-amide], the IC50 is 112 nM.
As for `CC(C)(CCO)NC(=O)c1c[nH]c2ncc(C3CC3)nc12` [Example I-42, 2-Cyclopropyl-5H-pyrrolo[2,3-b]pyrazine-7-carboxylic acid (3-hydroxy-1,1-dimethyl-propyl)-amide], the half-maximal inhibitory concentration (IC50) is 131 nM.
